In PubChem BioAssay (NCI):
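Cultured in 96-well plates, cells were exposed to test compound for 48 hours across five concentrations. Here, GI50 denotes the concentration required for 50% inhibition of growth. TGI denotes the concentration required for complete inhibition of growth.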

Key:
Test in all cases: NCI anticancer screen, dose series, 48 h
MOLT-4 leukemia = test system: MOLT-4 leukemia
T-47D breast = test system: T-47D breast
UACC-257 melanoma = test system: UACC-257 melanoma
COLO 205 colon = test system: COLO 205 colon
SF-295 CNS = test system: SF-295 CNS
OVCAR-8 ovarian = test system: OVCAR-8 ovarian
OVCAR-5 ovarian = test system: OVCAR-5 ovarian
NCI-H226 lung = test system: NCI-H226 lung
DU-145 prostate = test system: DU-145 prostate
HT29 colon = test system: HT29 colon
MALME-3M melanoma = test system: MALME-3M melanoma
SK-MEL-28 melanoma = test system: SK-MEL-28 melanoma
A498 renal = test system: A498 renal
RXF 393 renal = test system: RXF 393 renal
UACC-62 melanoma = test system: UACC-62 melanoma
SK-MEL-5 melanoma = test system: SK-MEL-5 melanoma
NCI-H460 lung = test system: NCI-H460 lung
MDA-MB-231 breast = test system: MDA-MB-231 breast
HCT-15 colon = test system: HCT-15 colon
786-0 renal = test system: 786-0 renal
LOX IMVI melanoma = test system: LOX IMVI melanoma
OVCAR-4 ovarian = test system: OVCAR-4 ovarian
A549 NSCLC = test system: A549 NSCLC
SW-620 colon = test system: SW-620 colon
SF-268 CNS = test system: SF-268 CNS
HCT-116 colon = test system: HCT-116 colon
K-562 leukemia = test system: K-562 leukemia
HS 578T breast = test system: HS 578T breast
HCC-2998 colon = test system: HCC-2998 colon
SR leukemia = test system: SR leukemia
ACHN renal = test system: ACHN renal
U251 CNS = test system: U251 CNS
SK-MEL-2 melanoma = test system: SK-MEL-2 melanoma
MCF7 breast = test system: MCF7 breast
EKVX NSCLC = test system: EKVX NSCLC
HOP-92 NSCLC = test system: HOP-92 NSCLC
SF-539 CNS = test system: SF-539 CNS
NCI-H522 lung = test system: NCI-H522 lung
IGROV1 ovarian = test system: IGROV1 ovarian
KM12 colon = test system: KM12 colon
NCI-H23 lung = test system: NCI-H23 lung
SN12C renal = test system: SN12C renal
CAKI-1 renal = test system: CAKI-1 renal
SK-OV-3 ovarian = test system: SK-OV-3 ovarian
RPMI-8226 leukemia = test system: RPMI-8226 leukemia
TK-10 renal = test system: TK-10 renal
PC-3 prostate = test system: PC-3 prostate
UO-31 renal = test system: UO-31 renal
SNB-19 CNS = test system: SNB-19 CNS
BT-549 breast = test system: BT-549 breast
CCRF-CEM leukemia = test system: CCRF-CEM leukemia
MDA-MB-468 breast = test system: MDA-MB-468 breast
NCI/ADR-RES ovarian = test system: NCI/ADR-RES ovarian
OVCAR-3 ovarian = test system: OVCAR-3 ovarian
HL-60(TB) leukemia = test system: HL-60(TB) leukemia
HOP-62 NSCLC = test system: HOP-62 NSCLC

Compound: Cc1ccc(/C=C(\C#N)n2nnc3c(F)cccc32)cc1
- GI50 (MOLT-4 leukemia): 473 nM
- TGI (MOLT-4 leukemia): 4400 nM
- GI50 (T-47D breast): 1630 nM
- TGI (T-47D breast): > 100000 nM
- GI50 (UACC-257 melanoma): 894 nM
- TGI (UACC-257 melanoma): > 100000 nM
- GI50 (COLO 205 colon): 294 nM
- TGI (COLO 205 colon): 739 nM
- GI50 (SF-295 CNS): 289 nM
- TGI (SF-295 CNS): 50800 nM
- GI50 (OVCAR-8 ovarian): 328 nM
- TGI (OVCAR-8 ovarian): 1690 nM
- GI50 (OVCAR-5 ovarian): 421 nM
- TGI (OVCAR-5 ovarian): 5240 nM
- GI50 (NCI-H226 lung): 936 nM
- TGI (NCI-H226 lung): > 62900 nM
- GI50 (DU-145 prostate): 386 nM
- TGI (DU-145 prostate): > 100000 nM
- GI50 (HT29 colon): 426 nM
- TGI (HT29 colon): > 100000 nM
- GI50 (MALME-3M melanoma): 404 nM
- TGI (MALME-3M melanoma): > 96200 nM
- GI50 (SK-MEL-28 melanoma): 825 nM
- TGI (SK-MEL-28 melanoma): > 100000 nM
- GI50 (A498 renal): 10800 nM
- TGI (A498 renal): 87000 nM
- GI50 (RXF 393 renal): 237 nM
- TGI (RXF 393 renal): 735 nM
- GI50 (UACC-62 melanoma): 273 nM
- TGI (UACC-62 melanoma): 27000 nM
- GI50 (SK-MEL-5 melanoma): 399 nM
- TGI (SK-MEL-5 melanoma): 4360 nM
- GI50 (NCI-H460 lung): 376 nM
- TGI (NCI-H460 lung): 3300 nM
- GI50 (MDA-MB-231 breast): 426 nM
- TGI (MDA-MB-231 breast): 2770 nM
- GI50 (HCT-15 colon): 319 nM
- TGI (HCT-15 colon): > 100000 nM
- GI50 (786-0 renal): 424 nM
- TGI (786-0 renal): 15800 nM
- GI50 (LOX IMVI melanoma): 349 nM
- TGI (LOX IMVI melanoma): 2300 nM
- GI50 (OVCAR-4 ovarian): 2790 nM
- TGI (OVCAR-4 ovarian): > 100000 nM
- GI50 (A549 NSCLC): 504 nM
- TGI (A549 NSCLC): > 100000 nM
- GI50 (SW-620 colon): 250 nM
- TGI (SW-620 colon): > 100000 nM
- GI50 (SF-268 CNS): 765 nM
- TGI (SF-268 CNS): > 61500 nM
- GI50 (HCT-116 colon): 285 nM
- TGI (HCT-116 colon): > 35800 nM
- GI50 (K-562 leukemia): 62.4 nM
- GI50 (HS 578T breast): 379 nM
- TGI (HS 578T breast): > 100000 nM
- GI50 (HCC-2998 colon): 971 nM
- TGI (HCC-2998 colon): 3240 nM
- GI50 (SR leukemia): 254 nM
- TGI (SR leukemia): 4310 nM
- GI50 (ACHN renal): 555 nM
- TGI (ACHN renal): > 100000 nM
- GI50 (U251 CNS): 387 nM
- TGI (U251 CNS): > 42700 nM
- GI50 (SK-MEL-2 melanoma): 302 nM
- TGI (SK-MEL-2 melanoma): > 100000 nM
- GI50 (MCF7 breast): 1530 nM
- TGI (MCF7 breast): > 100000 nM
- GI50 (EKVX NSCLC): 1560 nM
- TGI (EKVX NSCLC): > 94100 nM
- GI50 (HOP-92 NSCLC): 79.7 nM
- TGI (HOP-92 NSCLC): 1680 nM
- GI50 (SF-539 CNS): 200 nM
- TGI (SF-539 CNS): 467 nM
- GI50 (NCI-H522 lung): 84.4 nM
- TGI (NCI-H522 lung): 360 nM
- GI50 (IGROV1 ovarian): 507 nM
- TGI (IGROV1 ovarian): 9150 nM
- GI50 (KM12 colon): 470 nM
- TGI (KM12 colon): > 100000 nM
- GI50 (NCI-H23 lung): 523 nM
- TGI (NCI-H23 lung): 29000 nM
- GI50 (SN12C renal): 416 nM
- TGI (SN12C renal): 2250 nM
- GI50 (CAKI-1 renal): 152 nM
- TGI (CAKI-1 renal): > 100000 nM
- GI50 (SK-OV-3 ovarian): 585 nM
- TGI (SK-OV-3 ovarian): 46200 nM
- GI50 (RPMI-8226 leukemia): 296 nM
- TGI (RPMI-8226 leukemia): 1710 nM
- GI50 (TK-10 renal): 2700 nM
- TGI (TK-10 renal): 7790 nM
- GI50 (PC-3 prostate): 328 nM
- TGI (PC-3 prostate): > 38900 nM
- GI50 (UO-31 renal): 324 nM
- TGI (UO-31 renal): > 100000 nM
- GI50 (SNB-19 CNS): 718 nM
- TGI (SNB-19 CNS): > 100000 nM
- GI50 (BT-549 breast): 365 nM
- TGI (BT-549 breast): 2490 nM
- GI50 (CCRF-CEM leukemia): 285 nM
- TGI (CCRF-CEM leukemia): 1660 nM
- GI50 (MDA-MB-468 breast): 1530 nM
- TGI (MDA-MB-468 breast): 8710 nM
- GI50 (NCI/ADR-RES ovarian): 111 nM
- TGI (NCI/ADR-RES ovarian): 343 nM
- GI50 (OVCAR-3 ovarian): 254 nM
- TGI (OVCAR-3 ovarian): 941 nM
- GI50 (HL-60(TB) leukemia): 196 nM
- TGI (HL-60(TB) leukemia): 519 nM
- GI50 (HOP-62 NSCLC): 398 nM
- TGI (HOP-62 NSCLC): 6290 nM
